Values quoted from earlier work, collected in patent US7300682B2, “Method of preparation and use of coconut water in mamalian tissue nourishment growth and healthy maintenance” (Sabinsa Corporation, priority 2000, dated 2007).

Test system: Abelmoschus esculetus L and Solanum gilo L
Conditions: 100 mg/L

With `C=C1C[C@]23C[C@@]1(O)CC[C@H]2[C@@]12C=C[C@H](O)[C@@](C)(C(=O)O1)[C@H]2[C@@H]3C(=O)O` [GA3, gibberelic acid] as the compound, how does the “effect on plant height, yield, chlorophyll and vitamin contents” value read?
Its value is “significantly effective”.
